In patent publication US9233946B2, “Sulfonamide compounds” (KANCERA AB, priority 2010, dated 2016):

The compounds below were run against PFKFB3 (Homo sapiens (Human), UniProt Q16875) (assay: PFKFB3 kinase activity, Method A (F-2,6-P2 production, coupled PPi-PFK/NADH assay)).
Format: biochemical
From the text: The PFKFB3 (placenta form) and PFKFB4 were produced and purified to homogeneity from E. coli at Biovitrum and at Sprint Bioscience. All other reagents were purchased from commercial sources. Two independent methods have been used for determination of the kinase activity of PFKFB3 (Method A and Method B). Method B has been used for determination of the kinase activity of PFKFB4.
Method A: The kinase activity of the bi-functional enzyme is readily quantified based on the production of F-2,6-P2 as described by Van Schaftingen et al. (1982) Eur. J. Biochem. 129, 191-5. This sensitive assay is based on the potent activation of pyrophosphate dependent phosphofructokinase-1 (PPi-PFK) from potato tubers by F-2,6-P2. The use of a series of coupled enzymes leads to a consumption of NADH (nicotinamide adenine dinucleotide) that can be followed spectrophotometrically (an updated protocol is available in Van Schaftingen, (1984) Methods of Enzymatic Analysis (Bergmeyer, H. U., ed.), 3rd edn., vol. 6, pp. 335-341, Verlag Chemie, Weinheim). A protocol for measurements in 96-well microtiter plate format is also available (Bruni et al., (1989) Anal. Biochem. 178, 324-6). These assay protocols have been adopted for the measurement of the kinase activity of PFKFB3 with some modifications as described in the protocol below.
The assay was run in 96-well microtiter plates (Costar 3365 round bottom polypropylene) by consecutive additions of 30 μl each of a test compound solution (diluted from a DMSO stock solution), a PFKFB3 solution and a substrate (fructose-6-phosphate (F6P) and adenosine-5′-triphosphate (ATP)) containing solution. […] The final concentrations of all reagents in a total assay volume of 90 μl per well were: • 50 mM Tris-acetate at pH 8.0 • 0.1 mM EDTA (ethylene diamine tetraacetic acid) • 10 mM MgCl2 • 5 mM Na2HPO4 (buffered by the Tris-acetate to a final pH of 8.0) • 5 nM PFKFB3 • 4 μM ATP • 100 μM F6P (acid treated and then neutralized to remove any contaminating F-2,6-P2; see Van Schaftingen, 1984) • 1 mM dithiothreitol (DTT) • 0.005% Tween-20
A test compound at various concentrations (which also added 0.83% DMSO to the final solution)
The enzymatic reaction was allowed to proceed for 10 minutes at room temperature while on a plate shaker at medium speed (750 RPM). The reaction was then terminated by the addition of 90 μl of a 0.4 M NaOH solution to all wells. The plate was then placed on the plateshaker at the same speed for two minutes to allow sufficient mixing. All samples were then diluted by a factor of 10 by transferring 20 μl from each well to the corresponding well of a new plate with 180 μl distilled water predispensed to all wells.
The next step in the protocol was quantification of the levels of F-2,6-P2 in each well of the microtiter plate. This was done by transferring 20 μl of the content in each well to the corresponding position in a new plate (Nunc 269620 transparent 96-well plate). […] To ensure that all measured values were within the linear range of the response (measured to be between 0-1 nM of F-2,6-P2 as also described by Van Schaftingen) the same volume of a 2.5 nM and a 5.0 nM standard sample were also added to column 12 (as all samples were diluted five-fold in the assay procedure this corresponds to 0.5 and 1.0 nM samples). The procedure then involved consecutive additions of three solutions with the following premixed components: • Assay-mix (20 μl): Tris-acetate at pH 8.0, NADH and Mg(OAc)2 • PPi/F6P-mix (40 μl): Pyrophosphate and F6P • Enzyme-mix (20 μl): Tris-acetate at pH 8.0, aldolase, triose phosphate isomerase, glycerol-3-phosphate dehydrogenase, pyrophosphate-dependent phosphofructokinase from potato tubers and bovine serum albumin (BSA) […]

PFKFB3, sequence (Q16875 whole entry): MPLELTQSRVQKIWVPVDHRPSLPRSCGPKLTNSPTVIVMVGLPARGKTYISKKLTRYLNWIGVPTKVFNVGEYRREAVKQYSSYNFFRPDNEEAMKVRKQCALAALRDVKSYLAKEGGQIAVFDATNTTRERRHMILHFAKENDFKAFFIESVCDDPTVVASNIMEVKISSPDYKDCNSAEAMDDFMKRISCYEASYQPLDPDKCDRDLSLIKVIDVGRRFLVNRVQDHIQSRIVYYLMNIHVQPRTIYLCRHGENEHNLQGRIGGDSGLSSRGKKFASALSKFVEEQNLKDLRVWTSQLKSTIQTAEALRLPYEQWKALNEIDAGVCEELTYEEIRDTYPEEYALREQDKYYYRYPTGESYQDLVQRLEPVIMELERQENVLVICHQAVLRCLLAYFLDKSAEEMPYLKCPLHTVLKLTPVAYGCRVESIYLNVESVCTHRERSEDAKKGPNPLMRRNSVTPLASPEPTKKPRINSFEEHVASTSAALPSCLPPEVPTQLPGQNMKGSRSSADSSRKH

Row | SMILES | IC50 [nM]
1 | Cc1c(S(=O)(=O)Nc2cccc(CC(=O)O)c2)sc2ccc(C(C)C)cc12 [Example 15, (3-{[(5-Isopropyl-3-methyl-1-benzothien-2-yl)sulfonyl]amino}phenyl)acetic acid] | 230
2 | O=S(=O)(Nc1cccc(-c2nnn[nH]2)c1)c1ccc2ccccc2c1 [Example 20, N-[3-(1H-Tetrazol-5-yl)phenyl]naphthalene-2-sulfonamide] | 850
3 | Cc1c(S(=O)(=O)Nc2cncc(C(=O)O)c2)sc2ccc(C(C)C)cc12 [Example 9, 5-{[(5-Isopropyl-3-methyl-1-benzothien-2-yl)sulfonyl]amino}nicotinic acid] | 730
4 | O=S(=O)(Nc1cccc(-c2nnn[nH]2)c1)c1cccc(-c2ccc(C(F)(F)F)cc2)c1 [Example 55, N-[3-(1H-Tetrazol-5-yl)phenyl]-3-[4-(trifluoromethyl)phenyl]benzenesulfonamide] | 5750
5 | O=S(=O)(Nc1cccc(-c2nnn[nH]2)c1)c1ccc(-c2nsc(Cl)n2)s1 [Example 59, 5-(5-Chloro-1,2,4-thiadiazol-3-yl)-N-[3-(1H-tetrazol-5-yl)phenyl]thiophene-2-sulfonamide] | 560
6 | O=S(=O)(Nc1cccc(-c2nnn[nH]2)c1)c1ccc(Cl)c(Cl)c1Cl [Example 1, 2,3,4-Trichloro-N-[3-(1H-tetrazol-5-yl)phenyl]benzenesulfonamide] | 280
7 | Cc1c(S(=O)(=O)Nc2cccc(-c3nnn[nH]3)c2)sc2ccc(N)cc12 [Example 48, 5-Amino-3-methyl-N-[3-(1H-tetrazol-5-yl)phenyl]-1-benzothiophene-2-sulfonamide] | 360
8 | O=S(=O)(Nc1cccc(-c2nnn[nH]2)c1)c1ccc(F)cc1Cl [Example 81, 2-Chloro-4-fluoro-N-[3-(1H-tetrazol-5-yl)phenyl]benzenesulfonamide] | 9840
9 | O=S(=O)(Nc1cccc(-c2nnn[nH]2)c1)c1ccc(Br)cc1C(F)(F)F [Example 56, 4-Bromo-N-[3-(1H-tetrazol-5-yl)phenyl]-2-(trifluoromethyl)benzenesulfonamide] | 1120
10 | O=C(O)c1cccc(NS(=O)(=O)c2ccc(-c3ccon3)s2)c1 [Example 79, 3-{[(5-Isoxazol-3-yl-2-thienyl)sulfonyl]amino}benzoic acid] | 6310
11 | Cc1nc(-c2ccc(S(=O)(=O)Nc3cccc(-c4nnn[nH]4)c3)s2)cs1 [Example 25, 5-(2-Methyl-1,3-thiazol-4-yl)-N-[3-(1H-tetrazol-5-yl)phenyl]thiophene-2-sulfonamide] | 310
12 | O=S(=O)(Nc1cccc(-c2nnn[nH]2)c1)c1ccc(-c2cnco2)cc1 [Example 83, 4-(1,3-Oxazol-5-yl)-N-[3-(1H-tetrazol-5-yl)phenyl]benzenesulfonamide] | 8450
13 | Cc1c(S(=O)(=O)Nc2cccc(-c3nnn[nH]3)c2)oc2ccc(C(C)C)cc12 [Example 13, 5-Isopropyl-3-methyl-N-[3-(1H-tetrazol-5-yl)phenyl]-1-benzofuran-2-sulfonamide] | 80
14 | O=C(O)c1cccc(NS(=O)(=O)c2ccc(-c3ccccn3)s2)c1 [Example 78, 3-{[(5-Pyridin-2-yl-2-thienyl)sulfonyl]amino}benzoic acid] | 6690
15 | Cc1c(S(=O)(=O)Nc2cc(C(=O)O)cc([N+](=O)[O-])c2)sc2ccc(C(C)C)cc12 [Example 11, 3-{[(5-Isopropyl-3-methyl-1-benzothien-2-yl)sulfonyl]amino}-5-nitrobenzoic acid] | 850
16 | O=S(=O)(Nc1cccc(-c2nnn[nH]2)c1)c1cccc(-c2cc(Cl)cc(Cl)c2)c1 [Example 52, 3-(3,5-Dichlorophenyl)-N-[3-(1-H-tetrazol-5-yl)phenyl]benzenesulfonamide] | 2540
17 | Cc1nc(NS(=O)(=O)c2sc3ccc(C(C)C)cc3c2C)sc1C(=O)O [Example 8, 2-{[(5-Isopropyl-3-methyl-1-benzothien-2-yl)sulfonyl]amino}-4-methyl-1,3-thiazole-5-carboxylic acid] | 610
18 | COc1ccc(-c2cccc(S(=O)(=O)Nc3cccc(-c4nnn[nH]4)c3)c2)cc1 [Example 19, 4′-Methoxy-N-[3-(1H-tetrazol-5-yl)phenyl]biphenyl-3-sulfonamide] | 720
19 | NC(=O)c1cccc(-c2ccc(S(=O)(=O)Nc3cccc(-c4nnn[nH]4)c3)s2)c1 [Example 58, 3-[5-[[3-(1H-Tetrazol-5-yl)phenyl]sulfamoyl]-2-thienyl]benzamide] | 540
20 | Cc1c(S(=O)(=O)Nc2cccc(-c3nnn(CC(=O)O)n3)c2)sc2ccc(C(C)C)cc12 [Example 12, [5-(3-{[(5-Isopropyl-3-methyl-1-benzothien-2-yl)sulfonyl]amino}phenyl)-2H-tetrazol-2-yl]acetic acid] | 1020
21 | Cc1c(S(=O)(=O)Nc2cccc(C(=O)O)n2)sc2ccc(C(C)C)cc12 [Example 10, 6-{[(5-Isopropyl-3-methyl-1-benzothien-2-yl)sulfonyl]amino}pyridine-2-carboxylic acid] | 810
22 | O=S(=O)(Nc1cccc(-c2nnn[nH]2)c1)c1cccc(-c2ccc(F)cc2)c1 [Example 17, 4′-Fluoro-N-[3-(1H-tetrazol-5-yl)phenyl]biphenyl-3-sulfonamide] | 450
23 | O=S(=O)(Nc1cccc(-c2nnn[nH]2)c1)c1ccc(-c2ccccc2)cc1 [Example 31, N-[3-(1H-Tetrazol-5-yl)phenyl]biphenyl-4-sulfonamide] | 1390
24 | O=S(=O)(Nc1cccc(-c2nnn[nH]2)c1)c1ccc(-c2cnco2)s1 [Example 2, 5-(1,3-Oxazol-5-yl)-N-[3-(1H-tetrazol-5-yl)phenyl]thiophene-2-sulfonamide] | 3910
25 | Cc1c(S(=O)(=O)Nc2cccc(C(=O)O)c2)oc2ccc(C(C)C)cc12 [Example 14, 3-{[(5-Isopropyl-3-methyl-1-benzofuran-2-yl)sulfonyl]amino}benzoic acid] | 280
26 | CC(=O)Nc1ccc2sc(S(=O)(=O)Nc3cccc(C(=O)O)c3)c(C)c2c1 [Example 49, 3-({[5-(Acetylamino)-3-methyl-1-benzothien-2-yl]sulfonyl}amino)benzoic acid] | 5070
27 | Cc1cc(Cl)cc(Cl)c1S(=O)(=O)Nc1cccc(-c2nnn[nH]2)c1 [Example 53, 2,4-Dichloro-6-methyl-N-[3-(1H-tetrazol-5-yl)phenyl]benzenesulfonamide] | 1780
